The NIST ThermoML archive (doi:10.1016/j.jct.2019.02.028)

Assay: xn = mol fraction of the nth substance listed
Settings: Gas, Burnett expansion method

C=C(F)C(F)(F)F [2,3,3,3-tetrafluoro-1-propene] + FCF
Settings | mass density [kg/m3]
333.59 K, 860.21 kPa, x2 = 0.698 | 23.99
333.59 K, 1119 kPa, x2 = 0.259 | 46.7
333.59 K, 1128.1 kPa, x2 = 0.449 | 40.52
333.59 K, 1537.9 kPa, x2 = 0.259 | 70.09
333.6 K, 552.32 kPa, x2 = 0.874 | 12.52
333.6 K, 589.81 kPa, x2 = 0.698 | 15.97
333.61 K, 804.94 kPa, x2 = 0.874 | 18.8
333.61 K, 1164.8 kPa, x2 = 0.874 | 28.24
333.61 K, 1308.2 kPa, x2 = 0.119 | 63.18
333.64 K, 1653.6 kPa, x2 = 0.874 | 42.42
338.52 K, 549.73 kPa, x2 = 0.449 | 17.96
338.52 K, 1260 kPa, x2 = 0.698 | 36.03
338.52 K, 1772.2 kPa, x2 = 0.698 | 54.11
338.52 K, 2408.6 kPa, x2 = 0.698 | 81.28
338.53 K, 875.76 kPa, x2 = 0.698 | 23.99
338.53 K, 960.84 kPa, x2 = 0.119 | 42.01
338.53 K, 1150.8 kPa, x2 = 0.449 | 40.51
338.53 K, 2177.3 kPa, x2 = 0.449 | 91.55
338.54 K, 554.13 kPa, x2 = 0.259 | 20.7
338.54 K, 801.95 kPa, x2 = 0.449 | 26.97
338.54 K, 1788.2 kPa, x2 = 0.119 | 94.94
338.54 K, 2337.3 kPa, x2 = 0.874 | 63.7
338.54 K, 3099.5 kPa, x2 = 0.698 | 122
338.54 K, 3099.9 kPa, x2 = 0.874 | 96.05
338.54 K, 3850.5 kPa, x2 = 0.874 | 144.78
338.55 K, 671.73 kPa, x2 = 0.119 | 27.97
338.55 K, 1615.3 kPa, x2 = 0.449 | 60.93
338.55 K, 1689.4 kPa, x2 = 0.874 | 42.41
338.56 K, 599.87 kPa, x2 = 0.698 | 15.97
338.56 K, 803.81 kPa, x2 = 0.259 | 31.09
338.56 K, 1143.1 kPa, x2 = 0.259 | 46.69
338.56 K, 1187 kPa, x2 = 0.874 | 28.23
338.56 K, 1577.4 kPa, x2 = 0.259 | 70.08
338.56 K, 2083.1 kPa, x2 = 0.259 | 105.4
338.57 K, 819.08 kPa, x2 = 0.874 | 18.8
338.57 K, 1339.9 kPa, x2 = 0.119 | 63.15
338.61 K, 561.65 kPa, x2 = 0.874 | 12.52
343.46 K, 1811.6 kPa, x2 = 0.698 | 54.1
343.47 K, 558.86 kPa, x2 = 0.449 | 17.95
343.47 K, 2473.8 kPa, x2 = 0.698 | 81.25
343.48 K, 1650.8 kPa, x2 = 0.449 | 60.9
343.48 K, 3195 kPa, x2 = 0.874 | 95.98
343.49 K, 609.66 kPa, x2 = 0.698 | 15.97
343.49 K, 980.04 kPa, x2 = 0.119 | 42
343.49 K, 1173.6 kPa, x2 = 0.449 | 40.5
343.49 K, 1284.8 kPa, x2 = 0.698 | 36.02
343.5 K, 815.99 kPa, x2 = 0.449 | 26.96
343.5 K, 1724.4 kPa, x2 = 0.874 | 42.4
343.5 K, 1840.8 kPa, x2 = 0.119 | 94.9
343.5 K, 2238.7 kPa, x2 = 0.449 | 91.51
343.5 K, 2312 kPa, x2 = 0.119 | 142.7
343.5 K, 3209.6 kPa, x2 = 0.698 | 121.97
343.51 K, 683.81 kPa, x2 = 0.119 | 27.96
343.51 K, 891.35 kPa, x2 = 0.698 | 23.98
343.51 K, 1370.9 kPa, x2 = 0.119 | 63.13
343.51 K, 1616.3 kPa, x2 = 0.259 | 70.08
343.51 K, 2395 kPa, x2 = 0.874 | 63.68
343.51 K, 2864.8 kPa, x2 = 0.449 | 137.45
343.51 K, 4012.3 kPa, x2 = 0.874 | 144.62
343.52 K, 1167 kPa, x2 = 0.259 | 46.68
343.52 K, 2146.2 kPa, x2 = 0.259 | 105.38
343.54 K, 563.91 kPa, x2 = 0.259 | 20.69
343.54 K, 833.17 kPa, x2 = 0.874 | 18.79
343.54 K, 1209.2 kPa, x2 = 0.874 | 28.23
343.55 K, 818.98 kPa, x2 = 0.259 | 31.08
343.56 K, 570.8 kPa, x2 = 0.874 | 12.51
348.39 K, 1850.8 kPa, x2 = 0.698 | 54.08
348.42 K, 568.01 kPa, x2 = 0.449 | 17.95
348.42 K, 1308.9 kPa, x2 = 0.698 | 36.01
348.42 K, 2538.2 kPa, x2 = 0.698 | 81.23
348.43 K, 695.54 kPa, x2 = 0.119 | 27.95
348.43 K, 1196 kPa, x2 = 0.449 | 40.49
348.43 K, 3289.2 kPa, x2 = 0.874 | 95.91
348.44 K, 619.54 kPa, x2 = 0.698 | 15.96
348.45 K, 906.67 kPa, x2 = 0.698 | 23.97
348.45 K, 999.4 kPa, x2 = 0.119 | 41.99
348.45 K, 1401.8 kPa, x2 = 0.119 | 63.11
348.45 K, 1687.6 kPa, x2 = 0.449 | 60.87
348.45 K, 1759.4 kPa, x2 = 0.874 | 42.38
348.45 K, 1892.6 kPa, x2 = 0.119 | 94.85
348.45 K, 2299.3 kPa, x2 = 0.449 | 91.46
348.45 K, 2405.8 kPa, x2 = 0.119 | 142.61
348.45 K, 3317.7 kPa, x2 = 0.698 | 121.94
348.46 K, 573.31 kPa, x2 = 0.259 | 20.69
348.46 K, 830.53 kPa, x2 = 0.449 | 26.96
348.46 K, 1654.8 kPa, x2 = 0.259 | 70.07
348.46 K, 2452 kPa, x2 = 0.874 | 63.66
348.46 K, 2967.9 kPa, x2 = 0.449 | 137.38
348.47 K, 833.57 kPa, x2 = 0.259 | 31.08
348.47 K, 847.11 kPa, x2 = 0.874 | 18.79
348.47 K, 1190.6 kPa, x2 = 0.259 | 46.68
348.47 K, 2210.4 kPa, x2 = 0.259 | 105.36
348.47 K, 4171.1 kPa, x2 = 0.874 | 144.45
348.48 K, 1231.2 kPa, x2 = 0.874 | 28.22
348.51 K, 579.9 kPa, x2 = 0.874 | 12.51
353.35 K, 1889.8 kPa, x2 = 0.698 | 54.07
353.37 K, 1218.4 kPa, x2 = 0.449 | 40.48
353.37 K, 2601.9 kPa, x2 = 0.698 | 81.21
353.38 K, 577.17 kPa, x2 = 0.449 | 17.94
353.38 K, 1943.6 kPa, x2 = 0.119 | 94.8
353.38 K, 3382.4 kPa, x2 = 0.874 | 95.84
353.39 K, 629.39 kPa, x2 = 0.698 | 15.96
353.39 K, 707.68 kPa, x2 = 0.119 | 27.94
353.39 K, 922.11 kPa, x2 = 0.698 | 23.97
353.39 K, 1432.5 kPa, x2 = 0.119 | 63.08
353.39 K, 1723.8 kPa, x2 = 0.449 | 60.85
353.39 K, 2359.1 kPa, x2 = 0.449 | 91.42
353.39 K, 3068.7 kPa, x2 = 0.449 | 137.31
353.4 K, 582.53 kPa, x2 = 0.259 | 20.69
353.4 K, 844.78 kPa, x2 = 0.449 | 26.95
353.4 K, 1018.6 kPa, x2 = 0.119 | 41.97
353.4 K, 1333.5 kPa, x2 = 0.698 | 36
353.4 K, 1794.1 kPa, x2 = 0.874 | 42.37
353.4 K, 2493.2 kPa, x2 = 0.119 | 142.52
353.4 K, 2508.3 kPa, x2 = 0.874 | 63.64
353.4 K, 3424.3 kPa, x2 = 0.698 | 121.92
353.41 K, 1213.9 kPa, x2 = 0.259 | 46.67
353.41 K, 1693 kPa, x2 = 0.259 | 70.07
353.41 K, 2895.5 kPa, x2 = 0.259 | 158.94
353.41 K, 4232.8 kPa, x2 = 0.698 | 183.2
353.41 K, 4326.6 kPa, x2 = 0.874 | 144.29
353.42 K, 848.3 kPa, x2 = 0.259 | 31.07
